Results as given in patent publication US20080161327A1, “Substituted 9-Alkyladenines and the Use Thereof” (Aderis Pharmaceuticals, Inc., priority 2005, published 2008).
pIC50, pKi: −log10 of the molar value. Read-outs that look alike come from different tables or passages of the source.

How the values were obtained:
[1] = target: T1, A1 (h) adenosine receptor (Homo sapiens, UniProt P30542); experiment: Human recombinant adenosine receptor binding, A1 (h), [3H]DPCPX; conditions: for A1 Selectivity vs. A2A / A1 Selectivity vs. A2B / A1 Selectivity vs. A3: ratio of Ki
T1 construct: expressed in transfected cells
T1 sequence (P30542 1-326): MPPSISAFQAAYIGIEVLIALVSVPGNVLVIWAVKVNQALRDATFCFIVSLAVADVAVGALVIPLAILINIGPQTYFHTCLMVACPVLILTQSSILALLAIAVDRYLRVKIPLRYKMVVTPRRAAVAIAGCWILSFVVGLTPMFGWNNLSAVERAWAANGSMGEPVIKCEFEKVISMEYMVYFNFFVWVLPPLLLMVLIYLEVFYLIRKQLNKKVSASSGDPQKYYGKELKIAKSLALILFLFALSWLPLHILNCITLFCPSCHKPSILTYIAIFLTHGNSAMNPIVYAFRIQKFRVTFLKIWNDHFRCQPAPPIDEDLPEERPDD
Experimental: (§1) The compounds of the present invention were subjected to in vitro human recombinant adenosine receptor binding assays. Scintillation counting was used as the method of detection.
(§2) The IC50 values (concentration causing a half-maximal inhibition of control specific binding) and Hill coefficients (nH) were determined by non-linear regression analysis of the competition curves using Hill equation curve fitting (Motulsky, H. and Christopoulos, A., Fitting Models to Biological Data Using Linear and Nonlinear Regression, GraphPad Software Inc. (2003)).
(§3) The inhibition constants (Ki) were calculated from the Cheng Prusoff equation (Motulsky, H. and Christopoulos, A., supra).

[2] = target: T2, A1 (h) (agonist site) adenosine receptor (Homo sapiens, UniProt P30542); experiment: Human recombinant adenosine receptor binding, A1 (h) (agonist site), [3H]CCPA; conditions: for pKi / pIC50 / nH (Hill coefficient), A1 (h) (agonist site): [3H]CCPA, Table 5; for pKi: Cheng Prusoff
T2 construct: expressed in transfected cells
T2 sequence (P30542 1-326): T1 sequence (P30542 1-326)
Experimental: as §1, §2, §3

[3] = target: T3, A2A (h) adenosine receptor (Homo sapiens, UniProt P29274); experiment: Human recombinant adenosine receptor binding, A2A (h), [3H]CGS 21680
T3 construct: expressed in transfected cells
T3 sequence (P29274 whole entry): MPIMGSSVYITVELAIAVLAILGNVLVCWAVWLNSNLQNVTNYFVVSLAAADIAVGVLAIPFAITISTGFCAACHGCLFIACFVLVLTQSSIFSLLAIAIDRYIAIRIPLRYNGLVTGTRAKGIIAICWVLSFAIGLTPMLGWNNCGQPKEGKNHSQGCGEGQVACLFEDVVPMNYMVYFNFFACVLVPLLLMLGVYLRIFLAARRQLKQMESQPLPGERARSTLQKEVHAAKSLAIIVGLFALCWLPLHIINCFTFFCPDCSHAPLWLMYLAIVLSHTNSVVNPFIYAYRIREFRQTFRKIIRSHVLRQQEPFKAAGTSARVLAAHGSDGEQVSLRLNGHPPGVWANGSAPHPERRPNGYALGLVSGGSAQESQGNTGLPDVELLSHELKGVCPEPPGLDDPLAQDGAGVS
Experimental: as §1, §2, §3

[4] = target: T4, A2B (h) adenosine receptor (Homo sapiens, UniProt P29275); experiment: Human recombinant adenosine receptor binding, A2B (h), [3H]MRS 1754; conditions: for pKi: Table 8, read-out: Affinity Ki, A2B
T4 construct: expressed in transfected cells
T4 sequence (P29275 1-332): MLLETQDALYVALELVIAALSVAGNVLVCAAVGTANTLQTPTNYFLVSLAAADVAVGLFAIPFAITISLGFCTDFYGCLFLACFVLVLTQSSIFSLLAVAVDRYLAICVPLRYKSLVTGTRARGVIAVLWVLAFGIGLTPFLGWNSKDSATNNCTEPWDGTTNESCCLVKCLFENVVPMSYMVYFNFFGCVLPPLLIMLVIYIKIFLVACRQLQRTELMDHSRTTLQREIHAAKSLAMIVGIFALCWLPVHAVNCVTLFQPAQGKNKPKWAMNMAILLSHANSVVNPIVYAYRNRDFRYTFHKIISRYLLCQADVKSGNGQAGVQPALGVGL
Experimental: as §1, §2, §3

[5] = target: T5, A3 (h) adenosine receptor (Homo sapiens, UniProt P0DMS8); experiment: Human recombinant adenosine receptor binding, A3 (h), [3H]AB-MECA; conditions: for pKi: Table 8, read-out: Affinity Ki, A3
T5 construct: expressed in transfected cells
T5 sequence (P0DMS8 1-318): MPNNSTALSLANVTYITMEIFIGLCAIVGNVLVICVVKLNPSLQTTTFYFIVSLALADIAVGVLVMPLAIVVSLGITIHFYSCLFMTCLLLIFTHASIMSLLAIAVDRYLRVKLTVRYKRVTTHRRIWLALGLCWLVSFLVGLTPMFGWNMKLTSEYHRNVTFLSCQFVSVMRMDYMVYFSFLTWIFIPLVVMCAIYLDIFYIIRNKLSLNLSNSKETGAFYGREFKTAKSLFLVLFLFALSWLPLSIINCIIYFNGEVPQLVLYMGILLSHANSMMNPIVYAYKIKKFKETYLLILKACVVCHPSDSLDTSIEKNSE
Experimental: as §1, §2, §3

adenosine A1 receptors = target: T6, adenosine A1 receptors (Cavia porcellus, UniProt P47745); experiment: Adenosine A1 in vitro functional test, negative inotropic response in left atria (Schild plot); format: cell-based; conditions: guinea pig left atria, agonist NECA or CPA, read-out: KB (antagonist dissociation constant)
T6 construct: from tissue; host or cells: guinea pig left atria
T6 sequence (P47745 1-326): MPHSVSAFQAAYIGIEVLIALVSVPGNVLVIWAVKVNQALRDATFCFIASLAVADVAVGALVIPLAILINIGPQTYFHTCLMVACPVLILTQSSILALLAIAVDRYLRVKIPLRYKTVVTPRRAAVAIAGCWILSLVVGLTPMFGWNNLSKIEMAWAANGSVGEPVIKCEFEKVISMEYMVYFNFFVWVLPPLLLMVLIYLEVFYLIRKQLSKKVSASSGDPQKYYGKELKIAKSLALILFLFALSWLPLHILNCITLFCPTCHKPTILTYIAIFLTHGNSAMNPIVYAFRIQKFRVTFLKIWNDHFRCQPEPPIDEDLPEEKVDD
Experimental: A1 assay—Negative inotropic response (Barrett, R. J. et al., J. Pharmacol. Exp. Ther. 265:227-236 (1993)): Guinea pig left atria were placed in organ baths filled with Krebs Henseleit solution gassed with 95% O2 and 5% CO2 and maintained at a temperature of 31° C. An initial resting tension of 1 g was placed on each tissue, which was allowed to equilibrate. Atria were stimulated electrically to produce twitch responses. A fixed concentration of the test compound was added and the tissue was allowed to equilibrate for 1 hour before cumulative additions of an adenosine agonist (either 5′-N-ethylcarboxamidoadenosine (NECA) or N^6-cyclopentyladenosine (CPA)) to generate a dose response curve. This procedure was repeated with different concentrations of test compounds to generate a family of dose response curves. Schild plots were constructed from the resultant concentration-effect curves, and KB (antagonist dissociation constant) values were obtained. The results presented in Table 9 are expressed as KB values (concentrations of test compound such that one-half of the tissue adenosine receptor population is occupied by the test compound).

[6] = Table 8, read-out: Affinity Ki, A1
[7] = [3H]DPCPX, Cheng Prusoff, Table 5, read-out: Ki, A1 (h)
[8] = Cheng Prusoff, Table 6, read-out: Ki, A2A (h)
[9] = Table 8, read-out: Affinity Ki, A2A

Row | SMILES | pKi [1, 6] | pKi [1, 7] | pIC50 ([1]; [3H]DPCPX, Table 5) | nH (Hill coefficient), A1 (h) ([1]; [3H]DPCPX, Table 5) | A1 Selectivity vs. A2A ([1]; Table 8) | A1 Selectivity vs. A2B ([1]; Table 8) | A1 Selectivity vs. A3 ([1]; Table 8) | pKi [2] | pIC50 [2] | nH (Hill coefficient), A1 (h) (agonist site) [2] | pKi [3, 8] | pIC50 ([3]; Table 6) | nH (Hill coefficient), A2A (h) ([3]; Table 6) | pKi [3, 9] | pKi [4] | pKi [5] | Kb (adenosine A1 receptors) [nM] | also measured
1 | CC(C)N(C)c1nc2c(NC3CC4CC3CC4OCCCS(=O)(=O)O)ncnc2n1C (single isomer, unassigned) [1 (−isomer)] | 5.96 | 5.96 | 5.74 | 1.0 | 75 | >3000 | >3000 | 5.74 | 5.37 | 1.0 | 4.09 | 4.00 | 1.4 | 4.09 | < 4.00 | < 4.00 | 300 | –
2 | CC(C)N(C)c1nc2c(NC3CC4CC3CC4OCCCS(=O)(=O)O)ncnc2n1C (single isomer, unassigned) [Compound 1 (+isomer)] | 7.49 | 7.49 | 7.28 | 0.9 | 81 | >3000 | >3000 | 7.07 | 6.68 | 1.3 | 5.59 | 5.49 | 0.8 | 5.59 | < 4.00 | < 4.00 | 32000 | pIC50 ([5]; Table 7, N.C. = not calculable, less than 25% inhibition at the highest tested concentration): < 4.00
3 | CC(C)N(C)c1nc2c(N[C@H]3CC[C@H](OCCCS(=O)(=O)O)CC3)ncnc2n1C [Compound 6, N^6-[trans-4′-(^3-sulfopropoxy)cyclohexyl]-8-isopropylmethylamino-9-methyladenine] | – | – | – | – | – | – | – | – | – | – | – | – | – | – | – | – | 85000 | –
4 | CC(C)N(C)c1nc2c(NC3CC4CC3CC4O)[n+](C)cnc2n1C.[Cl-] (stereo not drawn) [Compound 14, N^6-(endo-5′-hydroxynorbornyl)-1-methyl-8-isopropylmethylamino-9-methyladenine chloride] | – | – | – | – | – | – | – | – | – | – | – | – | – | – | – | – | – | Percent Inhibition of Control Specific Binding, A1 (h) ([1]; compound at 1×10^−5M, CHO cells, [3H]DPCPX 1 nM): −1; Percent Inhibition of Control Specific Binding, A1 (h) (agonist site) ([2]; compound at 1×10^−5M, CHO cells, [3H]CCPA 1 nM): 18; Percent Inhibition of Control Specific Binding, A2A (h) ([3]; compound at 1×10^−5M, HEK-293 cells, [3H]CGS 21680 6 nM): −9; Percent Inhibition of Control Specific Binding, A2B (h) ([4]; compound at 1×10^−5M, HEK-293 cells, [3H]MRS 1754 0.5 nM): 5; Percent Inhibition of Control Specific Binding, A3 (h) ([5]; compound at 1×10^−5M, HEK-293 cells, [3H]AB-MECA 0.15 nM): 5
